Results published in patent US20140374103A1, “TREATING AND RECYLCING OILFIELD WASTE WATER” (BAKER HUGHES INCORPORATED, priority 2013, published 2014).

System: bacteria in oilfield waste water
Details: 10 mL of 30 vol % hydrogen peroxide to 250 mL raw oilfield waste water (Sample A and Sample B), room temperature, stirred; before vs after treatment; FIGS. 4 and 5
Method: The number density of the bacteria present in the oilfield waste water is determined before or after introduction of the biocide, the oxidizer, or a combination thereof. Determining the number density of the bacteria is accomplished in various manners. In an embodiment, the number density of the bacteria is determined by particle sizing such as by light scattering. In another embodiment, a small volume of oilfield water is disposed on an agar plate or slant tube and subjected to microbiological counting methods. Alternatively, the number density of the bacteria is determined by quantifying an amount of bacterial adenosine triphosphate (ATP) in a sample of the oilfield waste water, wherein the ATP is retrieved from living bacterial cells. The sample size is a portion or all of the oilfield waste water. […] The ATP quantification is accomplished by lysing the bacterial cells using an enzyme to release ATP into the sample of the oilfield waste water. An assay for the amount of ATP includes introducing a luminescent enzyme such as firefly luciferase to the sample and thereafter collecting luminescence from the luminescent enzyme. […] Thereafter, the number density of bacteria in the oilfield waste water is calculated from the amount of bacterial ATP. […] An aliquot of Sample A and Sample B was collected and subjected to ATP quantification before and after treatment with the hydrogen peroxide.

## OO [hydrogen peroxide]
  number density of bacteria in the treated water: drastically decreases the number density of bacteria
